This is an account of results in paper PMC3388095, “Fluorophore Labeled Kinase Detects Ligands That Bind within the MAPK Insert of p38α Kinase” (PLoS ONE, 2012).

Experiment [1] concerns p38α. The experiment is described as follows: glycine-rich loop FLiK binding assay (library screen). As to conditions: initial library screen.
The target of experiment [2] is RSK1 (Homo sapiens, UniProt Q15418). The experiment is described as follows: Kinase selectivity profile, 33P-ATP filter-binding assay. The experiment is classed as biochemical. An outline of the steps:
(§1)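 Radiometric filter assay (33P-ATP) within a 95-kinase selectivity screen; one concentration, 10 µM, gives % remaining activity.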

The target of experiment [3] is EF2K (Homo sapiens, UniProt O00418). The description is as above. Type of experiment: biochemical. The gist of the method:
as §1

For experiment [4], the target named is CAMK1 (Homo sapiens, UniProt Q14012). Described as above. Type of experiment: biochemical. The gist of the method: as §1
The target in experiment [5] is PAK2 (Homo sapiens, UniProt Q13177). The experiment is described as above. Type of experiment: biochemical. An outline of the steps:
as §1

Chain of RSK1 (Q15418 whole entry): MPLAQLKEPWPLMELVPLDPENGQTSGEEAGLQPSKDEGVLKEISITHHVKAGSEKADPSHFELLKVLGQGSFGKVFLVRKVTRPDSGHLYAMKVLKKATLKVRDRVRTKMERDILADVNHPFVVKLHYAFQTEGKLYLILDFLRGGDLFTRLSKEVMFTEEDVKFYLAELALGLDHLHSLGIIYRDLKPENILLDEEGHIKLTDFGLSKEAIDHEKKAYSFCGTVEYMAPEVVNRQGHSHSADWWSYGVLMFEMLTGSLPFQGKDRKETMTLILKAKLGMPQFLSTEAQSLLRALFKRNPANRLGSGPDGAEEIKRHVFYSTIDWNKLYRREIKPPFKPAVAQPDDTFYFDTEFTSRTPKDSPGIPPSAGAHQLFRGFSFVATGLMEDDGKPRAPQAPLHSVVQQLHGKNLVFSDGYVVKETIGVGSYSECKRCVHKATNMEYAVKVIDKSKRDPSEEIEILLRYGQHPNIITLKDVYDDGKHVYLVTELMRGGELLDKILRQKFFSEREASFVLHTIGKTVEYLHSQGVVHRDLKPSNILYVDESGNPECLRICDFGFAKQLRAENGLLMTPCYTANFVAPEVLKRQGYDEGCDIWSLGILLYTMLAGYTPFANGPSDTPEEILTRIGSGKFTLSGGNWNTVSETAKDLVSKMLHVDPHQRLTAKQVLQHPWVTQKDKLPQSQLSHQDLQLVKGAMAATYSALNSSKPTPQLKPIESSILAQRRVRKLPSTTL
Chain of PAK2 (Q13177 whole entry): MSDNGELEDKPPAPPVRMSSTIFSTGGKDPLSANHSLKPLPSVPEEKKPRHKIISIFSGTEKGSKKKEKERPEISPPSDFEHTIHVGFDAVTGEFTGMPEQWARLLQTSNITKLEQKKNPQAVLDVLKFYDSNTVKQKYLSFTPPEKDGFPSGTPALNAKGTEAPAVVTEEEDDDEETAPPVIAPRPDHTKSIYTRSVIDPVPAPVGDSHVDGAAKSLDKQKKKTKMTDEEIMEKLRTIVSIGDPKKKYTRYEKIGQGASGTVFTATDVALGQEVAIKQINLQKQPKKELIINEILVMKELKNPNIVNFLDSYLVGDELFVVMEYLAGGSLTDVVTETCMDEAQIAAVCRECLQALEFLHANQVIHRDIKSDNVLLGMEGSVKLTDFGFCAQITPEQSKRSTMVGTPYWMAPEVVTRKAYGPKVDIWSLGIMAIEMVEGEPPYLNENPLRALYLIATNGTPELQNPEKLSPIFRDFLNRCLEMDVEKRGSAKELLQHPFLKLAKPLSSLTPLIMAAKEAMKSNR

For the molecule `Nc1ccc2c(NC3CC3)nc(-c3ccccc3)nc2c1` [1b, N^4-Cyclopropyl-2-phenyl-4,7-quinazolinediamine], the “binding detected by glycine-rich loop FLiK assay” value in experiment [1] is reported as “weakly detected”. Besides, the remaining activity (in general, the signal under treatment as a percentage of the control signal) at 10 µM in experiment [2] was found to be 97%; in experiment [3], 102%; in experiment [4], 86%; in experiment [5], 90%.
